The values below come from patent US9617256B2 (priority 2007, dated 2017).

One data set concerns AECO001 (ATCC25922). In words: MIC broth microdilution, AECO001. The format is cell-based, E. coli. Particulars: for MIC: Escherichia coli; for Ratio of MICs on AECO001 [Cpd (A = —CHCH3NH2)/Cpd (A = —C(CH3)2NH2)]: MIC of paired compound with A = —CHCH3NH2 divided by MIC of compound with A = —C(CH3)2NH2, n=2 data, pairs identical except for the A moiety. The procedure, abridged:
(§1)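 Minimum inhibitory concentrations followed CLSI broth microdilution guidelines: cation-adjusted Mueller-Hinton broth, 2-fold serial drug dilutions, final inoculum 3×10^5–7×10^5 CFU/mL, ambient air at 35° C. for 18-24 hours. Quality-control strains and levofloxacin monitored performance.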
Background: Broth dilution looks for growth in wells or tubes with falling amounts of substance.

Data set [1] has as its system ATCC43816. As to the kind of experiment: Neutropenic thigh efficacy model. It counts as in vivo, mice. The following applies: for Ratio of thigh static doses: neutropenic thigh model, compound with A = —C(CH3)2NH2 versus paired compound with A = —C(CH3)2OH, ratio >1 means the —C(CH3)2NH2 compound had a lower static dose; for Ratio of thigh static dose normalized to MICs: ratio of neutropenic thigh static doses normalized to the MIC ratio on ATCC43816, —C(CH3)2NH2 compound versus paired —C(CH3)2OH compound. As to the method:
Mice were rendered neutropenic prior to infection with 2 doses of cyclophosphamide, and then infected intramuscularly in the thigh with 10^5-10^6 CFU of bacteria. See Gudmundsson S., Erlensdottir H., “Murine Thigh Infection Model” Handbook of Animal Models of Infection, M. A. Sande and O. Zak, Eds.; London: Academic Press, 1999, pp 137-144. Antibiotics or vehicle alone as a negative control were administered twice at 2 hrs and 14 hrs post-infection. At 24 hrs post-infection, thighs were harvested, homogenized, and plated to measure the number of CFUs surviving per thigh. Thighs from a subset of animals were also harvested 2 hrs post-infection to record the CFUs present just prior to the first antibiotic treatment (pre-treatment). The static dose, defined as the dose required to result in a CFU load at 24 hours that is identical to that measured at 0 hours post infection, was calculated by standard methods in Prizm from a dose response curve.
(§2) As shown in the following Table 3, three pairs of compounds were tested in the neutropenic thigh efficacy model. For each pair of compounds, the compounds were identical in structure except for the A moiety. More specifically, A is —C(CH3)2NH2 in one compound and A is —C(CH3)2OH in the other compound. […] In addition, the ratios of the MICs of each pair of compounds on the infecting strain (ATCC43816) was calculated.

Data set [2] deals with APAE006 (strain of P. aeruginosa in which all efflux pumps are inactivated). As to the kind of experiment: microbe, parasite or virus in culture. The format is cell-based. Particulars: Pseudomonas aeruginosa, read-out: MIC APAE006, APAE006, all efflux pumps inactivated. The procedure, abridged: (§3)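 Broth microdilution (CLSI); CA-MHB; 3×10^5–7×10^5 CFU/mL final; 2-fold dilutions; 35° C., ambient air, 18-24 h. APAE006 lacks all active efflux pumps.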

The test system of data set [3] is ATCC43816. In words: MIC broth microdilution, infecting strain ATCC43816. It counts as cell-based. The following applies: ratio >1 means the —C(CH3)2NH2 compound had a lower MIC than the paired —C(CH3)2OH compound. As to the method: Minimum Inhibitory Concentrations (MICs) were determined by the broth microdilution method in accordance with the Clinical and Laboratory Standards Institute (CLSI) guidelines. In brief, organism suspensions were adjusted to a 0.5 McFarland standard to yield a final inoculum between 3×10^5 and 7×10^5 colony-forming units (CFU)/mL. Drug dilutions and inocula were made in sterile, cation adjusted Mueller-Hinton Broth (Beckton Dickinson). An inoculum volume of 100 μL was added to wells containing 100 μL of broth with 2-fold serial dilutions of drug. All inoculated microdilution trays were incubated in ambient air at 35° C. for 18-24 hours. Following incubation, the lowest concentration of the drug that prevented visible growth (OD600 nm<0.05) was recorded as the MIC. Performance of the assay was monitored by the use of laboratory quality-control strains and levofloxacin, a compound with a defined MIC spectrum, in accordance with CLSI guidelines. Typically, compounds of the present invention have MIC values of […].
as §2

The test system of data set [4] is APAE006 in the presence of 8 micrograms per milliliter of polymyxin B nonapeptide. The format is cell-based, P. aeruginosa. Particulars: APAE006 with 8 micrograms per milliliter polymyxin B nonapeptide. An outline of the steps:
as §3

Data set [5] concerns AABA1060 (clinical isolate of Acinetobacter baumannii). In words: MIC broth microdilution, AABA1060. It counts as cell-based. Particulars: Acinetobacter baumannii, read-out: MIC AABA1060. The procedure, abridged: as §1
Data set [6] relates to ASAU001 (laboratory strain of S. aureus, ATCC29213). In words: MIC broth microdilution, ASAU001. It counts as cell-based. Particulars: Staphylococcus aureus, ATCC29213, read-out: MIC ASAU001. The procedure, abridged:
as §1

Another data set deals with APAE001 (ATCC27853). In words: MIC broth microdilution, APAE001. The format is cell-based, P. aeruginosa. The following applies: Pseudomonas aeruginosa, ATCC27853, read-out: MIC APAE001, APAE001 (ATCC27853). An outline of the steps:
as §1

The test system of data set [7] is AECO063 (ATCC25922 bearing an acrAB mutation). In words: microbe, parasite or virus in culture. Particulars: Escherichia coli, ATCC25922, read-out: MIC AECO063. The format is cell-based, E. coli. An outline of the steps:
as §1

Setting [8] is: ATCC25922, read-out: MIC AECO001.
Setting [9] is: ATCC25922, read-out: MIC AECO001 HSA AGP.

Converted amounts (≈) assume the structure as drawn. Where two headings read alike, the source gives them in different places.

For the compound `CC(C)(N)[C@H](NC(=O)c1ccc(C#CC#Cc2cccs2)cc1)C(=O)NO` [Example 88-13], the MIC in the data set with AECO001 (ATCC25922) (setting [8]) is < 2 µg/mL; in the data set on AECO001 (ATCC25922) (setting [9]) it was < 2 µg/mL; in [2] it was < 2 µg/mL; in data set [5], < 2 µg/mL; in data set [6], 2 to 16 µg/mL (≈ 5.24 to 41.9 µM); in the data set on APAE001 (ATCC27853), < 2 µg/mL. Besides, the MIC in data set [7] was < 2 µg/mL. Besides, in the data set with AECO001 (ATCC25922), the “Ratio of MICs on AECO001 [Cpd (A = —CHCH3NH2)/Cpd (A = —C(CH3)2NH2)]” value (“Ratio of MICs on AECO001” below) was 4.1. The “Ratio of thigh static doses” value with ATCC43816 [1] is >7x. Besides, the “Ratio of thigh static dose normalized to MICs” value with ATCC43816 [1] is given as >4.4x. In the data set with ATCC43816 [3], the “Ratio of MICs on ATCC43816 [Cpd (A = —CH(CH3)2OH/Cpd (A = —C(CH3)2NH2)])” value came to 1.6. In addition, the “MIC APAE006 + PMBN” value in data set [4] is reported as “A (MIC's of 2.0 μg/mL or less = A)”.

On to `CC(C)(N)[C@H](NC(=O)c1ccc(C#Cc2ccc(CN3CCCOCC3)cc2)cc1)C(=O)NO` [Example 122-5], for which the MIC in the data set on AECO001 (ATCC25922) (setting [8]) is < 2 µg/mL; in the data set on AECO001 (ATCC25922) (setting [9]), < 2 µg/mL; in data set [2], < 2 µg/mL; in data set [5], < 2 µg/mL; in data set [6] it was 16 to 64 µg/mL (≈ 34.4 to 138 µM); in the data set with APAE001 (ATCC27853), < 2 µg/mL. Further, in data set [7], the MIC is < 2 µg/mL. For the same compound, in the data set with AECO001 (ATCC25922), the “Ratio of MICs on AECO001” value worked out at 2.4. Besides, in the data set on ATCC43816 [1], the “Ratio of thigh static doses” value is >2x. The “Ratio of thigh static dose normalized to MICs” value in the data set on ATCC43816 [1] is >4x. Moreover, in the data set on ATCC43816 [3], the “Ratio of MICs on ATCC43816 [Cpd (A = —CH(CH3)2OH/Cpd (A = —C(CH3)2NH2)])” value is recorded as 0.5. For the same compound, the “MIC APAE006 + PMBN” value in data set [4] is listed as “A (MIC's of 2.0 μg/mL or less = A)”.

A word on the melting point: it is the temperature, or range, at which the solid turns liquid. Consider `O=C(NO)[C@H]1[C@H](O)CCN1C(=O)c1ccc(OC(F)(F)F)cc1`, for which the melting point is 64 to 65 °C.

In the case of `CC(C)(N)[C@H](NC(=O)c1ccc(C#CC#CC2CC2)cc1)C(=O)NO` [Example 91-12], the MIC was < 2 µg/mL in the data set on AECO001 (ATCC25922) (setting [8]); < 2 µg/mL with AECO001 (ATCC25922) (setting [9]); < 2 µg/mL in data set [2]; < 2 µg/mL in data set [5]; 2 to 16 µg/mL (≈ 5.89 to 47.1 µM) in data set [6]; < 2 µg/mL in the data set with APAE001 (ATCC27853). The MIC in data set [7] is < 2 µg/mL. Also, the “Ratio of MICs on AECO001” value with AECO001 (ATCC25922) is recorded as 5.6. The “Ratio of thigh static doses” value in the data set on ATCC43816 [1] is >3x. The “Ratio of thigh static dose normalized to MICs” value in the data set with ATCC43816 [1] is >3x. The “Ratio of MICs on ATCC43816 [Cpd (A = —CH(CH3)2OH/Cpd (A = —C(CH3)2NH2)])” value in the data set on ATCC43816 [3] is given as 1.0. In addition, the “MIC APAE006 + PMBN” value in data set [4] is “A (MIC's of 2.0 μg/mL or less = A)”.

Take `C[C@@H](O)[C@H](NC(=O)c1ccc(F)c(Br)c1)C(=O)NO`: the melting point was 152 to 153 °C.
